Measurements reported in US6632793B1, “Immunological activity for a peptide of the limulus anti-LPS factor” (Centro de Ingenieria Genetica y Biotecnologia, priority 1997, dated 2003).
Where a SMILES comes first, the peptide text is derived from it.

Experiments:
human mononuclear cells = assay: Antiviral effect on Hep-2 cells of supernatant from human mononuclear cells stimulated with peptide; assay type: cell-based; conditions: for Antiviral effect of supernatant, 1: supernatant on Hep-2, experiment 1; for Antiviral effect of supernatant, 2: supernatant on Hep-2, experiment 2; for Antiviral effect of supernatant, 3: supernatant on Hep-2, experiment 3; for Antiviral effect of supernatant, Mean: supernatant on Hep-2, mean of 3
Description: Then the cells were washed with saline solution and infected with […] of Mengo virus, provide by Institute of Molecular Biology, University of Zurich, which is multiplied in the cell line L929 murine fibroblasts. 18 h later degree of cell destruction was measured by fixation and staining, generally with crystal violet, for reading of cytophatic effect was used a photometer Ultramicroanalytical System (SUMA). A computer program in Pascal UCSD language for the microcomputer system was developed for all calculations and corrections (Ferrero et al., 1994, Biotecnologia Aplicada. Vol. 1:). In this case serial dilution's of human γ-IFN 70 000 IU/ml (MRI, Freeze-dried Reference Human Recombinant Gamma Interferon) was used as standard in order to define unit of antiviral activity. For this reason the antiviral protection shown by the peptide is related to International Units of γ-IFN (Ul/ml). As a negative control were used different peptides from proteins that bind endotoxin. LPS at 10 ng/ml was used as a positively control because is well known that it induced the production of IFNs (Manthey et al., 1994, J. Immunology. Vol. 153: 2653-2663). One unit of antiviral activity is define as the quantity of IFN able to produce an 50% inhibition of the viral replication.
Venous blood was obtained from healthy volunteers and Ficoll-Hypaque centrifugation, fractionated mononuclear cells. The mononuclear cells were washed and resuspended in endotoxin-free RPMI-1640 culture medium supplemented with 10% fetal calf serum. Concentration of 2×10^6 cells/ml were aliquoted into 24-well microtiter plates (Nunc, Denmark). The cells were then incubated with 14 and 28 μg/ml of different peptides: Limulus anti-LPS factor31-52 (LALF), Lipopolysaccharide Binding Protein86-99 (LBP) and 18 kDa Cationic Antimicrobial Protein108-128 (CAP-18), at 37° C. for 18 hours in 5% CO2. The cells were centrifuged at 3000 rpm for 5 min and then serial dilutions of supematants were assays for antiviral activity using the procedures described in the example 2.

[1] = test system: TNFα from human mononuclear cells; assay: TNF-α synthesis by human mononuclear cells (ELISA of supernatant); assay type: cell-based; conditions: for TNF - α: 18 h, mean of three donors
Description: Venous blood was obtained from healthy volunteers and Ficoll-Hypaque centrifugation, fractionated mononuclear cells. The mononuclear cells were washed and resuspended in endotoxic-free RPMI 1640 medium supplemented with 10% fetal calf serum. 30×10^6 cells were aliquoted into plates p-60 (Nunc, Denmark). The cells were incubated with 14 or 28 μg/ml LALF at 37° C. for 18 hours in 5% CO2 and then centrifuged at 3000 rpm during 5 min. The synthesis of TNFα in the supernatant was determined by specific enzyme-linked immunoadsorbent assay (ELISA), kindly provided by Dr. W. Buurman (University Hospital Maastrich, The Netherlands).

[2] = test system: TNF-α in peritoneal macrophages; assay: TNF-α production in LPS-activated peritoneal macrophages pre-incubated with peptide; assay type: cell-based, Balb/c mice; conditions: 5 μM pre-incubation 18 h, then LPS 1 μg/ml; 1-24 h; FIG. 6
Description: Peritoneal elicited cells were obtained from Balb/c mice (CENPALAB, Havana, Cuba). Primary mouse macrophages was collected from the peritoneal cavity 4 days after intraperitoneal injection with 1 ml of 4% Brewer's thioglicollate broth. Cell were maintained in RPMI 1640 supplemented with 10% heat-inactivated fetal bovine serum, 2 mM L-glutamine, 200 units/ml penicillin, and 200 μg/ml streptomycin at 37° C. in 5% CO2/[…].
TNF-α assay: Cells were plated in 96-well plates at 2×10^6 cells/ml in 200 μl of medium and incubated at 37° C. for 2 h. Non-adherent cells were removed by repeated washing with PBS. Macrophages were pre-incubated with 5 μM of LALF peptide during 18 h, afterward were washed with RPMI medium in order to eliminate the peptide. Then macrophages were treated with LPS of E. coli 0111:B4, Sigma (1 μg/ml). TNF-α was determined in supematants from cultured cells at the time 1 h, 2 h, 4 h, 6 h and 24 h used a kit of ELISA kindly provided by [Dr. W. Buurman Univ. Hosp. Maastrich, Netherlands].
FIG. 6: Regulatory effect of LALF derived-peptide on TNF-α production in stimulated peritoneal macrophages. The macrophages were pretreated with 5 μM of LALF peptide during 18 hours and then the cells were activated with 1 μg of E. coli LPS. TNF-α was measured in the cells cultured supernatants at different time.

[3] = test system: cytokine mRNA in human PBMCs; assay: Cytokine gene expression in human PBMCs by Ribonuclease Protection Assay (hck-1 probe set); assay type: cell-based; conditions: 5 μM for 18 hours; FIG. 8
Description: The Ribonuclease Protection Assay (RPA) is a highly sensitive and specific method for the detection, quantification and characterization of RNA molecules (Gilman^32, M. In Current Protocols in Molecular Biology. J. Wiley and Sons, New York, p. 4.7.1-7.7.8. 1988 and Dent^33, A. L., Shaffer, A. L., Yu […]., 1997. Cytokine expression and germinal center formation by Bcl-2. […] Samples of total RNA from stimulated and nonstimulated human PBMCs were analyzed for distinct mRNA species by PharMingen's RiboQuantTM. Multi-Probe Ribonuclease Protection Assay System with the hck-1 probe template set (Cat. No. 45031P) which including mRNA species analyses for a different cytokine eg. (IL-5, IL-4, IL-10, IL-15, IL-9, IL-2, IL-13, IFN-γ). […] The identity and quantity of each mRNA species in the original RNA sample can then be determined based on the signal intensities given by the appropriately sized of protected probe fragment bands. Unprotected probe set and a probe for housekeeping gene transcripts are incorporating in order to identify and quantify the RNA molecules in the original samples. […] FIG 8: Samples of total RNA from stimulated human PBMCs with 5 μM of peptide for 18 hours were analyzed for distinct mRNA species by using […] […]

[4] = mononuclear cells stimulated with 14 μg/ml for 18 h
[5] = mononuclear cells stimulated with 28 μg/ml for 18 h

**Q.** Which results are given for `CC[C@H](C)[C@H](NC(=O)[C@H](CCCNC(=N)N)NC(=O)[C@H](Cc1ccc(O)cc1)NC(=O)[C@H](Cc1c[nH]cn1)NC(=O)[C@@H](N)CS)C(=O)N[C@@H](CCCCN)C(=O)N1CCC[C@H]1C(=O)N[C@H](C(=O)N[C@@H](Cc1ccccc1)C(=O)N[C@@H](CCCNC(=N)N)C(=O)N[C@@H](CCCNC(=N)N)C(=O)N[C@@H](CC(C)C)C(=O)N[C@@H](CCCCN)C(=O)N[C@@H](Cc1c[nH]c2ccccc12)C(=O)N[C@@H](CCCCN)C(=O)N[C@@H](Cc1ccc(O)cc1)C(=O)N[C@@H](CCCCN)C(=O)NCC(=O)N[C@@H](CCCCN)C(=O)N[C@@H](Cc1ccccc1)C(=O)N[C@@H](Cc1c[nH]c2ccccc12)C(=O)N[C@@H](CS)C(=O)O)[C@@H](C)O` [LALF] (H-CHYRIKPTFRRLKWKYKGKFWC-OH)?
**A.** Release of protective mediator by human peripheral blood mononuclear cells (in words) (human mononuclear cells; 14 and 28 μg/ml, 18 h): induce them to release certain mediator capable of conferring protection to the Hep-2 cells against viral infections; Antiviral effect of supernatant, 1 (human mononuclear cells; [4]): 28 IU/ml γ-IFN; Antiviral effect of supernatant, 2 (human mononuclear cells; [4]): 27.6 IU/ml γ-IFN; Antiviral effect of supernatant, 3 (human mononuclear cells; [4]): 20.4 IU/ml γ-IFN; Antiviral effect of supernatant, Mean (human mononuclear cells; [4]): 25.3 IU/ml γ-IFN; Antiviral effect of supernatant, 1 (human mononuclear cells; [5]): 28.4 IU/ml γ-IFN; Antiviral effect of supernatant, 2 (human mononuclear cells; [5]): 28 IU/ml γ-IFN; Antiviral effect of supernatant, 3 (human mononuclear cells; [5]): 20 IU/ml γ-IFN; Antiviral effect of supernatant, Mean (human mononuclear cells; [5]): 25.4 IU/ml γ-IFN; TNF - α ([1]; 14 μg/ml): 0.84 ng/mL; TNF - α ([1]; 28 μg/ml): 0.80 ng/mL; TNF-α levels versus control buffer treated cells (in words) ([1]; 14-28 μg/ml alone): did not induce increased levels of TNF-α over the control buffer treated cells; TNF levels in LPS-activated macrophages (in words) [2]: down regulated; Cytokine gene expression in human PBMCs (in words) [3]: able to preferentially induce IFN-γ, IL-2 and IL-13 gene expression
